Test results reported in patent publication US20190040063A1, “TRICYCLIC COMPOUND FOR BROMODOMAIN-CONTAINING PROTEIN INHIBITOR AND PREPARATION PHARMACEUTICAL COMPOSITION, AND APPLICATION THEREOF” (CHIA TAI TIANQING PHARMACEUTICAL GROUP CO., LTD., priority 2016, published 2019).

Columns and labels:
BRD4 = molecular target: T1, BRD4 (Homo sapiens, UniProt O60885); experiment: In vitro enzymatic activity assay: inhibition of BRD4 enzyme binding reaction by HTRF; settings: GST-BRD4 (51-462) 1 nM, acetylated short peptide 100 nM, 23° C., 60 min
T1 construct: GST-BRD4 (51-462) (purchased from Cisbio); purchased Cisbio
Experimental: IC50 values of the compounds of the present application in inhibiting BRD4 enzyme binding reaction were determined by homogeneous time resolved fluorescence (HTRF). A compound was serially diluted 5-fold with 100% DMSO starting from 1 mM (totally 7 concentrations). 2 μL of the compound at each concentration was added into 48 μL of a reaction buffer solution (20 mM HEPES pH7.5, 150 mM NaCl, 5 mM DTT, 0.005% Tween 20 and 100 μg/ml BSA) to be diluted and fully mixed. Then 2.5 μL of the resulting mixture was added to a 384-well plate (OptiPlate-384, purchased from PerkinElmer), 5 μL of GST-BRD4 (51-462) (purchased from Cisbio) (final concentration: 1 nM) was added, and the resulting mixture was centrifuged, and fully mixed. Then 2.5 μL of a short peptide Biotin-AHA-SGRGK(Ac)GGK-(Ac)GLGK(Ac)GGAK(Ac)RHRKV) (synthesized by GL Biochem (Shanghai) Ltd) (final concentration: 100 nM) was added to initiate the reaction (total reaction volume: 10 μL). The 384-well plate was placed in an incubator at 23° C. to react for 60 min, and then 5 μL of Eu3+ cryptate-labeled anti-GST antibody (purchased from Cisbio) and 5 μL of Streptavidin-XL-665 (purchased from Cisbio) were added to terminate the reaction. After an additional 1 hour incubation in the incubator, the fluorescence values (excited at 320 nm, emitted light at 665 nm and 620 nm being detected, and the ratio of the two being the enzyme binding signal) were read on Envision (purchased from PerkinElmer). The binding strength of each compound to the BRD4 protein was determined respectively at 7 concentrations, and the data were calculated with GraphPad Prism software to obtain the IC50 value of the compound.

MV4-11 cells = experiment: Cell proliferation activity assay (Cell-Titer Blue); assay type: cell-based; settings: Homo sapiens, inhibiting cell proliferation, 72 h co-incubation
Experimental: Human acute […] leukemia cell line MV4-11 cells were cultured in PRIM1640 medium plus 10% fetal bovine serum (FBS, purchased from Biological Industries, BI) and 1% penicillin/streptomycin double antibody solution (P/S, purchased from Life Technology) at 37° C. with 5% CO2. On the day before the compound was tested, the MV4-11 cells were spread in a 96-well plate (purchased from Corning) at a concentration of 8,000 cells/195 μL/well. On the next day, the compound was serially diluted 3-fold with 100% DMSO starting from 10 mM (totally 10 concentrations). 2 μL of the resulting mixture at each concentration was diluted with 48 μL of PRIM1640 medium (purchased from Life Technology). 5 μL of the diluted compound at each concentration was added to the spread cell suspension, and the compound and cells were co-incubated in a cell incubator for 72 h (3 days), and then incubated for additional 4 h after adding 35 μL of Cell-Titer Blue reagent (purchased from Promega). Then the fluorescence values (excited at 560 nm, detected at 590 nm) were read on Flexstation III (purchased from Molecular Devices), and the data were calculated with GraphPad Prism software to obtain the IC50 value of the compound in inhibiting cell proliferation.

Row | SMILES | IC50 (BRD4) | IC50 (MV4-11 cells)
1 | Cc1noc(C)c1-c1cnc2c3ncc(C(C)(C)O)cc3n(C(c3ccccc3)C3CCOCC3)c2c1 (stereo not drawn) [Compound 22, 2-(7-(3,5-Dimethylisoxazol-4-yl)-5-(phenyl(tetrahydro-2H-pyran-4-yl)methyl]-5H-pyrrolo[3,2-b:4,5-b′]dipyridin-3-yl)propan-2-ol] | < 2 nM | < 10 nM
2 | Cc1noc(C)c1-c1cnc2c3ccc(C(C)(C)O)nc3n(C(c3ncccc3F)C3CCOCC3)c2c1 (stereo not drawn) [Compound 60] | < 2 nM | –
3 | CCOC(=O)c1cc2c(cn1)c1ncc(-c3c(C)noc3C)cc1n2C(c1ccccc1)C1CCOCC1 (stereo not drawn) [Compound 3, Ethyl 3-(3,5-dimethylisoxazol-4-yl)-5-[phenyl(tetrahydro-2H-pyran-4-yl)methyl]-5H-pyrrolo[2,3-b:4,5-c′]dipyridine-7-carboxylate] | < 2 nM | –
4 | Cc1noc(C)c1-c1cnc2c3ccc(C(N)=O)nc3n(C(c3ccccc3)C3CCOCC3)c2c1 (stereo not drawn) [Compound 50, 3-(3,5-Dimethylisoxazol-4-yl)-5-[phenyl(tetrahydro-2H-pyran-4-yl)methyl]-5H-pyrrolo [2,3-b:4,5-b′]dipyridine-7-carboxamide] | < 2 nM | < 10 nM
5 | Cc1nnn(C)c1-c1cnc2c3ccc(C(C)(C)O)nc3n(C(c3ccccc3)C3CCOCC3)c2c1 (stereo not drawn) [Compound 20, 2-(3-(1,4-Dimethyl-1H-1,2,3-triazol-5-yl)-5-[phenyl(tetrahydro-2H-pyran-4-yl)methyl]-5H-pyrrolo[2,3-b:4,5-b′]dipyridin-7-yl)propan-2-ol] | < 2 nM | –
6 | Cc1noc(C)c1-c1cnc2c3ccc(C(C)(C)O)nc3n([C@H](c3ccccc3)C3CCOCC3)c2c1 [Compound 16, (S)-2-{3-(3,5-dimethylisoxazol-4-yl)-5-[phenyl(tetrahydro-2H-pyran-4-yl)methyl]-5H-pyrrolo[2,3-b:4,5-b′]dipyridin-7-yl}propan-2-ol] | < 2 nM | < 10 nM
7 | Cc1noc(C)c1-c1cc(F)c2c3ncc(C(C)(C)O)cc3n(C(c3ccccc3)C3CCOCC3)c2c1 (stereo not drawn) [Compound 24, 2-{7-(3,5-dimethylisoxazol-4-yl)-9-fluoro-5-[phenyl(tetrahydro-2H-pyran-4-yl)methyl]-5H-pyridino[3,2-b]indol-3-yl}propan-2-ol] | < 2 nM | < 10 nM
8 | Cc1noc(C)c1-c1cnc2c3ccc(O)nc3n(C(c3ccccc3)C3CCOCC3)c2c1 (stereo not drawn) [Compound 43, 3-(3,5-Dimethylisoxazol-4-yl)-5-[phenyl(tetrahydro-2H-pyran-4-yl)methyl]-5H-pyrrolo[2,3-b:4,5-b′]dipyridine-7-ol] | < 2 nM | < 10 nM
9 | CCCC(CCC)n1c2cc(C(C)(C)O)ncc2c2ncc(-c3c(C)noc3C)cc21 [Compound 39, 2-[3-(3,5-Dimethylisoxazol-4-yl)-5-(heptan-4-yl)-5H-pyrrolo[3,2-b:4,5-c′]dipyridin-7-yl]propan-2-ol] | < 2 nM | –
10 | Cc1noc(C)c1-c1cnc2c3ccc(C(C)O)nc3n(C(c3ccccc3)C3CCOCC3)c2c1 (stereo not drawn) [Compound 57, 1-{3-(3,5-Dimethylisoxazol-4-yl)-5-[phenyl(tetrahydro-2H-pyran-4-yl)methyl]-5H-pyrrolo[2,3-b:4,5-b′]dipyridin-7-yl}ethan-1-ol] | < 2 nM | –
11 | Cc1noc(C)c1-c1cnc2c3ccncc3n(C(c3ccccc3)C3CCOCC3)c2c1 (stereo not drawn) [Compound 37, 3,5-Dimethyl-4-{5-[phenyl(tetrahydro-2H-pyran-4-yl)methyl]-5H-pyrrolo[3,2-b:5,4-c′]dipyridin-3-yl}isoxazole] | < 2 nM | –

Next, values leading:

Row | IC50 (BRD4) | IC50 (MV4-11 cells) | SMILES
12 | < 2 nM | – | CCOC(=O)c1cc2c(cn1)c1ncc(-c3c(C)noc3C)cc1n2[C@H](c1ccccc1)C1CCOCC1 [Compound 9, Ethyl (S)-3-(3,5-dimethylisoxazol-4-yl)-5-[phenyl(tetrahydro-2H-pyran-4-yl)methyl]-5H-pyrrolo[3,2-b:4,5-c′]dipyridine-7-carboxylate]
13 | < 2 nM | < 10 nM | Cc1noc(C)c1-c1cnc2c3cnc(C(C)(C)O)cc3n([C@H](c3ccccc3)C3CCOCC3)c2c1 [Compound 10, (S)-2-{3-(3,5-dimethylisoxazol-4-yl)-5-[phenyl(tetrahydro-2H-pyran-4-yl)methyl]-5H-pyrrolo[3,2-b:4,5-c′]dipyridin-7-yl}propan-2-ol]
14 | < 2 nM | – | COc1ccc2c(n1)c1ncc(-c3c(C)noc3C)cc1n2C(c1ccccc1)C1CCOCC1 (stereo not drawn) [Compound 1, 4-{8-Methoxy-5-[phenyl(tetrahydro-2H-pyran-4-yl)methyl]-5H-pyrrolo[3,2-b:4,5-b′]dipyridin-3-yl}-3,5-dimethylisoxazole]
15 | < 2 nM | – | CC(=O)c1ccc2c3ncc(-c4c(C)noc4C)cc3n(C(c3ccccc3)C3CCOCC3)c2n1 (stereo not drawn) [Compound 56, 1-{3-(3,5-Dimethylisoxazol-4-yl)-5-[phenyl(tetrahydro-2H-pyran-4-yl)methyl]-5H-pyrrolo[2,3-b:4,5-b′]dipyridin-7-yl}ethyl-1-one]
16 | < 2 nM | – | CON(C)C(=O)c1ccc2c3ncc(-c4c(C)noc4C)cc3n(C(c3ccccc3)C3CCOCC3)c2n1 (stereo not drawn) [Compound 55, 3-(3,5-Dimethylisoxazol-4-yl)-N-methoxy-N-methyl-5-[phenyl(tetrahydro-2H-pyran-4-yl)methyl]-5H-pyrrolo[2,3-b:4,5-b′]dipyridine-7-carboxamide]
17 | < 2 nM | < 10 nM | Cc1noc(C)c1-c1cnc2c3ccc(N)nc3n(C(c3ccccc3)C3CCOCC3)c2c1 (stereo not drawn) [Compound 52, 3-(3,5-Dimethylisoxazol-4-yl)-5-[phenyl(tetrahydro-2H-pyran-4-yl)methyl]-5H-pyrrolo[2,3-b:4,5-b′]dipyridine-7-amine]
18 | < 2 nM | < 10 nM | Cc1noc(C)c1-c1cnc2c3cnc(C(C)(C)O)cc3n(C(c3ccccc3)C3CCOCC3)c2c1 (stereo not drawn) [Compound 4, 2-{3-(3,5-Dimethylisoxazol-4-yl)-5-[phenyl(tetrahydro-2H-pyran-4-yl)methyl]-5H-pyrrolo[3,2-b:4,5-c′]dipyridin-7-yl}propan-2-ol]
19 | < 2 nM | – | Cc1noc(C)c1-c1cnc2c3cnc(C(C)(C)O)cc3n(C(c3ccccc3)c3cscn3)c2c1 (stereo not drawn) [Compound 41, 2-{3-(3,5-Dimethylisoxazol-4-yl)-5-[phenyl(thiazol-4-yl)methyl]-5H-pyrrolo[3,2-b:4,5-c′]dipyridin-7-yl}propan-2-ol]
20 | < 2 nM | < 10 nM | Cc1noc(C)c1-c1cnc2c3cnc(C(C)(C)O)cc3n([C@@H](c3ccccc3)C3CCOCC3)c2c1 [Compound 12, (R)-2-{3-(3,5-dimethylisoxazol-4-yl)-5-[phenyl(tetrahydro-2H-pyran-4-yl)methyl]-5H-pyrrolo[3,2-b:4,5-c′]dipyridin-7-yl}propan-2-ol]
21 | < 2 nM | – | Cc1noc(C)c1-c1cnc2c3ccc(C(C)(C)O)nc3n(C(c3ccccc3)C3CCOCC3)c2c1 (stereo not drawn) [Compound 6, 2-{3-(3,5-Dimethylisoxazol-4-yl)-5-[phenyl(tetrahydro-2H-pyran-4-yl)methyl]-5H-pyrrolo[2,3-b:4,5-b′]dipyridin-7-yl}propan-2-ol]
